Reference: PMC5812297, “Specificity and Application of the Lantibiotic Protease NisP” (Frontiers in Microbiology, 2018)
Ends that are not written are not given here.

Columns and labels:
engineered soluble NisP = assay: Enzyme kinetic assay of NisP cleavage of prenisin variants (Lineweaver–Burk, RP-HPLC); format: biochemical, Lactococcus lactis; settings: for Kcat/Km in comparison, in words: among the four prenisin variants, or vs literature
Procedure: In order to investigate the substrate specificity and kinetic parameters of NisP, a set of mutants of P4-P1 was created. We used wild-type prenisin (ASPR), nis-Peng (VSLR), nis-Thrombin (AVPR), and nis-Factor Xa (IEGR) as substrates. The concentration of NisP was determined by the BCA assay with bovine serum albumin as standard. The conditions of cleavage reaction were optimized with 100 mM Tris buffer containing 5 mM CaCl2 (pH 6.0). The reaction was stopped at the indicated times adding TFA to a final concentration of 1%. The reaction was performed in 100 μl with 6.5 ng/ml NisP at 37°C. 1% TFA was added to terminate the reaction at 5 different time points (5, 15, 30, 45, and 60 min). All the samples were analyzed by analytical RP-HPLC as indicated before (Mu et al., [2015]) and measuring the absorbance at 205 nm. For each substrate concentration, the initial velocity was calculated on the basis of the peak area of released nisin vs. time. The kinetic parameters were determined by fitting the calculated enzyme activities at different substrate concentrations (ranging from 1 to 25 μM) to a linear regression curve on Lineweaver–Burk double reciprocal plot (Lineweaver and Burk, [1934]).

NisP = assay: Cleavage of nisin mutants by NisP in crude supernatants or purified peptide, masses by MALDI-TOF; format: biochemical, Lactococcus lactis; settings: His-tagged purified NisP, overnight 37°C, ratio 1000:1, culture pH (4.5–5.0) or pH 6.0, MALDI-TOF
Procedure: Alternatively, supernatants containing nisin mutant peptides produced after induction were divided into two fractions; one in which the pH was adjusted to 6.0 and the other one where the pH was the actual fermentation pH. They were incubated overnight at 37°C with or without His-tagged purified NisP at a ratio of 1000:1. After the incubation, the supernatants were precipitated using TCA and resuspended in 1/20 volume 0.05% acetic acid. For the mutants that were produced in lower amounts, larger volumes were induced and the peptides were purified by cationic exchange chromatography as described before and separated by reverse phase chromatography using a Jupiter 4 μm Proteo 90 Å 250 × 4.6 mm C12 analytical column (Phenomenex). The column was equilibrated in 20% organic solvent (acetonitrile 0.1% TFA) before the sample injection. It was washed for 5 min before applying a linear gradient from 20 to 50% organic solvent in 20 min. 1 μl of each collected peak was used for mass-spectrometry determination.
Mass spectrometry analysis of the samples was performed by matrix-assisted laser desorption/ionization (MALDI) time-of-flight (ToF) in an ABI Voyager DE Pro (Applied Biosystems) operating in linear mode as previously described using external calibration (van Heel et al., [2013]). Briefly, 1 μl sample was spotted, dried and washed with 5 μL Milli-Q water, on the target. Next, 1 μl of α-cyano-4-hydroxycinnamic acid 5 mg/ml (Sigma-Aldrich) was spotted on the sample.
We designed a set of nisin mutants to investigate the specificity of NisP (Figure 4). For all these mutants, supernatants were collected after induction and divided into three fractions. NisP was added to two of these fractions, one maintaining the pH of the culture (4.5–5.0) and the other fraction was adjusted to pH 6.0. The third fraction was used as an untreated control. After cleavage, the masses of the peptides were monitored by MALDI-TOF (Table 2).

[1] = test system: L. lactis NZ9000 (pNZnisP-8H); assay: Antimicrobial activity of purified prelantibiotics against NisP producing sensor strain; format: cell-based, Lactococcus lactis; settings: no NisP, data not shown
Procedure: Activity tests were performed by well-diffusion assay as indicated by van Heel et al. ([2013]). L. lactis NZ9000 transformed with the appropriate plasmids or Micrococcus flavus were used as sensor strains as specified in each figure. The cleavage of nisin by NisP after SDS-PAGE was monitored washing the gel according to Bhunia et al. ([1987]) and covering with an overlay of GM17 soft agar inoculated with NZ9000 (pIL3BTC pNZnisA-E3) induced with 1 ng/ml nisin. The overlay was incubated for 16 h, after which the presence of inhibition zones was evaluated.
The substrate tolerance of soluble NisP was tested using a set of different lantibiotics. These were produced using the nisin modification machinery encoded in NZ9000 (pIL3BTC pNZE3-mutant) and purified by cationic exchange chromatography. For this purpose, NZ9000 (pNZ-nisP-8H) was used as a sensor strain and tested using gallidermin (van Heel et al., [2013]) and two lantibiotics detected in the genome of Streptococcus pneumoniae, PneA1 and PneA2 encoded in the genes spr1765 and spr1766, respectively, which were heterologously expressed in L. lactis fused to the nisin leader peptide (Majchrzykiewicz et al., [2010]) (Figure 5). […] The activity was restored when a strain producing soluble NisP was employed.
Figure 5 Antimicrobial activity of purified modified lantibiotics gallidermin, 1215 and 1268 against L. lactis NZ9000 (pNZnisP-8H). […]

sensor bacteria = settings: only antimicrobial activity as evidence, ref Kuipers et al., [1995]; cited from earlier work
Text: It was anticipated that the binding of dehydrobutyrine in position P2′ was less important than the interaction of Ile in position P1′ with a hydrophobic groove in NisP (Siezen et al., [1995]). Some mutants like I1W were previously shown to be cut by NisP using only the antimicrobial activity as evidence (Kuipers et al., [1995]). […] We could observe that an ...

prenisin = settings: cell extracts of induced E. coli, ref van der Meer et al., [1993]; cited from earlier work
Text: During the production of nisin, the protease NisP is exported and anchored to the cell wall in a sortase-mediated manner. In previous attempts to characterize the specificity of NisP, the in vivo cleavage was based on the detection of the antimicrobial activity and the detection of mature lantibiotic compared to that of the prelantibiotic (van der Meer et al., [1994]). The activity in vitro could be confirmed using membrane preparations of cells expressing NisP bound to the cell wall, which limited the assays. Therefore, we engineered a soluble NisP variant that could facilitate this task. Our ...

[2] = 100 mM Tris 5 mM CaCl2 pH 6.0, 37°C, 6.5 ng/ml NisP, substrate 1 to 25 μM, Lineweaver–Burk, mean value ± standard deviation

Molecule	Kcat/Km (catalytic efficiency) (engineered soluble NisP; 100 mM Tris 5 mM CaCl2 pH 6.0, 37°C, 6.5 ng/ml NisP) [M⁻¹ s⁻¹]	Km (engineered soluble NisP; 100 mM Tris 5 mM CaCl2 pH 6.0, 37°C, 6.5 ng/ml NisP, substrate 1 to 25 μM, 5-60 min, RP-HPLC 205 nm, Lineweaver–Burk, mean value ± standard deviation) [µM]	Kcat (engineered soluble NisP; [2]) [s⁻¹]	Vmax (engineered soluble NisP; [2]) [µmol/mg/min]	Kcat/Km in comparison, in words (engineered soluble NisP; listed as wild-type nisin)	Kcat/Km in comparison, in words (engineered soluble NisP; listed as wild-type prenisin (ASPR))	Cleavage by NisP (NisP)	Antimicrobial activity in the absence of NisP [1]	Cleavage by NisP (earlier work) (sensor bacteria)	Activation of prenisin (prenisin)
WT Prenisin (ASPR): fully modified nisin with its leader peptide (ASPR cleavage site); inactive until leader is removed (MSTKDFNLDLVSVSKKDSGASPRITSISLCTPGCKTGALMGCNMKTATCHCSIHVSK; not fully specified (bridges); cysteine pairing not given here; also: fully modified nisin, modifications not placed; UniProt P13068 1-57, looked up)	1.71e+06	0.73 ± 0.08	1.25 ± 0.07	1.79 ± 0.10	in line with previous results in literature	highest catalytic efficiency	fully cleaved	none of the prelantibiotics tested, not even prenisin, was active	–	–
nisin I1W: Nisin I1W mutant (MSTKDFNLDLVSVSKKDSGASPRWTSISLCTPGCKTGALMGCNMKTATCHCSIHVSK; ends and bridges not checked; cysteine pairing not given here; UniProt P13068 1-57, looked up, variant I1W)	–	–	–	–	–	–	fully processed	–	cut by NisP	–
cell wall attached NisP: full length NisP expressed in E. coli (van der Meer et al., 1993) (protein, UniProt Q07596 1-682, looked up, full-length) MKKILGFLFIVCSLGLSATVHGETTNSQQLLSNNINTELINHNSNAILSSTEGSTTDSINLGAQSPAVKSTTRTELDVTGAAKTLLQTSAVQKEMKVSLQETQVSSEFSKRDSVTNKEAVPVSKDELLEQSEVVVSTSSIQKNKILDNKKKRANFVTSSPLIKEKPSNSKDASGVIDNSASPLSYRKAKEVVSLRQPLKNQKVEAQPLLISNSSEKKASVYTNSHDFWDYQWDMKYVTNNGESYALYQPSKKISVGIIDSGIMEEHPDLSNSLGNYFKNLVPKGGFDNEEPDETGNPSDIVDKMGHGTEVAGQITANGNILGVAPGITVNIYRVFGENLSKSEWVARAIRRAADDGNKVINISAGQYLMISGSYDDGTNDYQEYLNYKSAINYATAKGSIVVAALGNDSLNIQDNQTMINFLKRFRSIKVPGKVVDAPSVFEDVIAVGGIDGYGNISDFSNIGADAIYAPAGTTANFKKYGQDKFVSQGYYLKDWLFTTANTGWYQYVYGNSFATPKVSGALALVVDKYGIKNPNQLKRFLLMNSPEVNGNRVLNIVDLLNGKNKAFSLDTDKGQDDAINHKSMENLKESRDTMKQEQDKEIQRNTNNNFSIKNDFHNISKEVISVDYNINQKMANNRNSRGAVSVRSQEILPVTGDGEDFLPALGIVCISILGILKRKTKN	–	–	–	–	–	–	–	–	–	could activate prenisin
